Data as given in US10077238B2, “Small molecule LFA-1 inhibitors” (ALLOCYTE PHARMACEUTICALS AG, priority 2014, dated 2018).

What was measured:
Assay type in all cases: cell-based
[1] = molecular target: T1, LFA-1 (Homo sapiens, UniProt P20701); experiment: V well cell adhesion assay, LFA-1-mediated Jurkat cell binding to ICAM-1 (LFA-1 adhesion); conditions: Jurkat cells on ICAM-1/Fc; mean ±SD of ≥3 independent experiments in triplicates or single experiments in triplicates
T1 construct: endogenous in cells; host or cells: Jurkat cells
Method: Cell-Based Assay to Determine the Effect of the Compounds on LFA-1-Mediated Cell Adhesion (LFA-1 Adhesion)
Purpose of the Assay: The V well cell adhesion assay measures the ability of the compounds to interfere with LFA-1-mediated binding to ICAM-1 at cellular level. The assay has been successfully used in the past to identify and characterize small molecules LFA-1 inhibitors.
Experimental Protocol: The adhesion assay was performed in Vbottom 96-well plates as described previously [Weitz-Schmidt 2012]. Briefly, the plates were coated with anti-human IgG mAb diluted in coating buffer (20 mM Tris containing 150 mM NaCl, pH 8) (1 μg/mL) and incubated overnight at 4° C. The plates were flicked out and blocked with blocking buffer (50 mM Tris base, 150 mM NaCl, 1.5% BSA (w/v), pH 7.2) at 37° C. for 90 min. Then human recombinant ICAM-1/Fc (R&D Systems) diluted in coating buffer (0.3 μg/mL) was added to each well. The plates were incubated at 37° C. for 90 min and washed with binding buffer (50 mM Tris base, 150 mM NaCl, 1.5% BSA (w/v), 2 mM MgCl2, 2 mM MnCl2, 5 mM D-glucose monohydrate, pH 7.2-7.4) to remove unbound ligand.
Jurkat cells were cultured under standard conditions as recommended by the American Type Culture collection (ATCC). The cells were fluorescently labelled with BCECF-AM in PBS (1 μg/mL) at 37° C. for 20 min in the dark, centrifuged and washed with PBS. The test compounds were dissolved in DMSO at 10 mM and serially pre-diluted in DMSO (100%) to avoid precipitation, before performing final dilution steps in binding buffer.
The labelled Jurkat cells were re-suspended in binding buffer and test compounds or solvent control were added. The DMSO concentration was kept constant in all samples (1% DMSO as final assay concentration). After 40 min at 37° C. (LFA-1 activation and compound pre-incubation step) the cell suspension (3×10^5 cells/mL in binding buffer) was pipetted up and down and transferred to the ligand-coated microtiter V well plates (30 000 cells/well). The plates were centrifuged for 4 min at room temperature (rt) at 1000 rpm (Centrifuge Eppendorf 5810 R), setting the brake off Non-adherent cells that accumulated in the center of the Vbottom were quantified using a fluorescence reader with the filter sets allowing excitation at 485 nm and quantification of emission at 535 nm. The determination of the half maximal inhibitory concentration (IC50) of the compounds was calculated using the software GraphPad Prism 6.

[2] = system: Jurkat cells; experiment: CellTiter-Glo Luminescent Cell Viability Assay (ATP), Jurkat; conditions: 24 hours exposure, mean ± SD of triplicates
Description: (§1) Assessment of Cellular Toxicity (Toxilight Assay and CellTiter-Glo Assay)
(§2) Purpose. To detect potential cellular toxicity of present LFA-1 inhibitors two complementary assays were chosen: the Toxilight™ BioAssay (Lonza) and the CellTiter-Glo™ Luminescent Cell Viability Assay (Promega). The Toxilight assay measures cell death via the release of the cytosolic enzyme adenylate kinase into the supernatant of treated cell cultures. The CellTiter-Glo assay directly determines the key energy metabolite ATP, resulting in sensitive quantitation of the number of healthy cells in culture.
(§3) Both assays were used with two different cell lines: the Jurkat and HepG2 cell lines. Jurkat, a human lymphocytic leukemia cell line, was utilized to assess the effect of the compounds on LFA-1 expressing cells. HepG2, a human hepatocyte cell line, was used to assess the response of liver cells where drugs are metabolized. Both assays included the use of untreated cells, and cells treated with amiodarone or 0.5% Triton X 100 as cytotoxic controls.
(§4) Jurkat cells and HepG2 cells were cultured in RPMI 1640 containing 10% FCS or DMEM containing 10% FCS under standard conditions (recommended by ATCC). Compounds were dissolved in DMSO and serially pre-diluted in DMSO (100%) to avoid precipitation of the compounds, before final dilution steps in culture medium containing FCS were performed. The final DMSO concentration was kept constant at 0.5% in all samples.
(§5) The test compounds and controls were exposed to the cells for 24 hours respectively at 37° C. Then adenylate kinase activity was quantified in the supernatant of the cell cultures using the ToxiLight™ reagent. In an independent set of experiments ATP content was measured by adding the CellTiter-Glo™ reagent according to manufacturer's instructions.

[3] = molecular target: T2, VLA-4 (Homo sapiens, UniProt P05556+P13612); experiment: V well cell adhesion assay, VLA-4-mediated Jurkat cell binding to VCAM-1 (VLA-4 adhesion); conditions: Jurkat cells on VCAM-1 Fc; single experiments run in triplicates
T2 construct: endogenous in cells; host or cells: Jurkat cells
Method: Cell-Based Assay to Determine the Selectivity of the Compounds Over the Integrin VLA-4 (VLA-4 Adhesion)
Purpose of the Assay: This V well cell adhesion assay measures the effect of the compounds on VLA-4-mediated Jurkat cell binding to VCAM-1. The assay has been successfully used in the past to determine the selectivity of small molecule LFA-1 inhibitors over the integrin VLA-4.
Experimental Protocol: The adhesion assay was performed as described above for the Jurkat/ICAM-1 V well adhesion assay. Briefly, plates were coated with anti-human IgG mAb and blocked with BSA as described above. Instead of ICAM-1, recombinant human VCAM-1/CD106 Fc chimera (R&D Systems) was coated onto the plates (0.3 μg/mL in coating buffer). After incubation, labelled Jurkat cells in binding buffer were transferred to the wells (20,000 cells/well). The plates were immediately centrifuged at 1000 rpm for 4 min at rt (Centrifuge Eppendorf 5810 R) setting the brakeoff. Non-adherent cells were quantified in the tip of the Vbottom well using a fluorescence reader. IC50 values of the compounds were calculated using the software GraphPad Prism 6.

[4] = system: HepG2 cells; experiment: CellTiter-Glo Luminescent Cell Viability Assay (ATP), HepG2; conditions: 24 hours exposure, mean ± SD of triplicates
Description: as §1, §2, §3, §4, §5

[5] = molecular target: T1, LFA-1; experiment: Flow cytometry, mAb MEM148 binding to LFA-1 expressed on leukocytes; conditions: solvent ctrl = 1, Jurkat cells or PBMCs
Method: Quantification of mAb MEM148 Binding to LFA-1 (mAb MEM148 Binding)
Purpose of the Assay: This flow cytometry assay determines the effect of the compounds on the binding of the conformation-sensitive anti-LFA-1 mAb MEM148 to LFA-1 expressed on leukocytes. The mAb MEM148 detects an epitope which becomes exposed in activated LFA-1 [Yuki 2012]
Experimental Protocol: The assay is performed as the flow cytometry assay described above.
Briefly, Jurkat cells or PBMCs in assay buffer (50 mM Tris, 150 mM NaCl, 1 mM CaCl2, 1 mM MgCl2, 5 mM Glucose, 1.5% BSA, pH 7.3) were pre-incubated with the compounds and appropriate positive controls for 40 min at rt. After incubation, the cell-suspension was centrifuged, the supernatant discarded and PE-labelled anti-LFA-1 mAb MEM148 was directly added to the pellets. After pipetting up and down, the tubes were incubated for 30 min. at 37° C. in the dark. The pellet was washed twice with 1 mL PBS and resuspended in PBS. Antibody binding was quantified by flow cytometry. Mean fluorescence intensities (MFI) were calculated using the CellQuest software.

[6] = system: HepG2 cells; experiment: Toxilight BioAssay (adenylate kinase release), HepG2; conditions: 24 hours exposure, mean ± SD of triplicates
Description: as §1, §2, §3, §4, §5

[7] = system: Jurkat cells; experiment: Toxilight BioAssay (adenylate kinase release), Jurkat; conditions: 24 hours exposure, mean ± SD of triplicates
Description: as §1, §2, §3, §4, §5

[8] = molecular target: T1, LFA-1; experiment: Flow cytometry, mAb R7.1 binding to LFA-1 expressed on leukocytes; conditions: Jurkat cells or human PBMCs, values of independent experiments; for inhibition at 1 µM: Jurkat
Method: Measurement of mAb R7.1 binding to LFA-1 (mAb R7.1 binding)
Purpose of the Assay: This flow cytometry assay determines the effect of the compounds on the binding of the anti-LFA-1 mAb R7.1 to LFA-1 expressed on leukocytes.
Experimental Protocol: Jurkat cells or human peripheral blood mononuclear cells (PBMCs) were resuspended in assay buffer (50 mM Tris, 150 mM NaCl, 2 mM MgCl2, 1.5% BSA and 5 mM D-glucose monohydrate, pH7.2) at 2×10^6 cells/mL and 500 μL of this cell suspension (1×10^6 cells) were transferred into polypropylene tubes containing the test compounds diluted in 500 μL assay buffer. The samples were pre-incubated at 37° C. for 40 min, and centrifuged. The supernatants were removed and FITC-labelled anti-LFA-1 mAb R7.1 and PE-labeled anti-LFA-1 mAb TS2/4 (mAb TS2/4 is not affected by alpha I allosteric inhibitor binding to LFA-1) or appropriate isotype controls were added directly to each cell pellet. The pellets were then gently pipetted up and down and incubated on ice for 30 min in the dark. After the incubation step the cells were washed twice with PBS and resuspended in PBS.
Antibody binding was analyzed by flow cytometry. Mean fluorescence intensities (MFI) were calculated using the CellQuest software. The values are expressed as % of solvent control (solvent control=100% binding).

T1 sequence (P20701 26-1170): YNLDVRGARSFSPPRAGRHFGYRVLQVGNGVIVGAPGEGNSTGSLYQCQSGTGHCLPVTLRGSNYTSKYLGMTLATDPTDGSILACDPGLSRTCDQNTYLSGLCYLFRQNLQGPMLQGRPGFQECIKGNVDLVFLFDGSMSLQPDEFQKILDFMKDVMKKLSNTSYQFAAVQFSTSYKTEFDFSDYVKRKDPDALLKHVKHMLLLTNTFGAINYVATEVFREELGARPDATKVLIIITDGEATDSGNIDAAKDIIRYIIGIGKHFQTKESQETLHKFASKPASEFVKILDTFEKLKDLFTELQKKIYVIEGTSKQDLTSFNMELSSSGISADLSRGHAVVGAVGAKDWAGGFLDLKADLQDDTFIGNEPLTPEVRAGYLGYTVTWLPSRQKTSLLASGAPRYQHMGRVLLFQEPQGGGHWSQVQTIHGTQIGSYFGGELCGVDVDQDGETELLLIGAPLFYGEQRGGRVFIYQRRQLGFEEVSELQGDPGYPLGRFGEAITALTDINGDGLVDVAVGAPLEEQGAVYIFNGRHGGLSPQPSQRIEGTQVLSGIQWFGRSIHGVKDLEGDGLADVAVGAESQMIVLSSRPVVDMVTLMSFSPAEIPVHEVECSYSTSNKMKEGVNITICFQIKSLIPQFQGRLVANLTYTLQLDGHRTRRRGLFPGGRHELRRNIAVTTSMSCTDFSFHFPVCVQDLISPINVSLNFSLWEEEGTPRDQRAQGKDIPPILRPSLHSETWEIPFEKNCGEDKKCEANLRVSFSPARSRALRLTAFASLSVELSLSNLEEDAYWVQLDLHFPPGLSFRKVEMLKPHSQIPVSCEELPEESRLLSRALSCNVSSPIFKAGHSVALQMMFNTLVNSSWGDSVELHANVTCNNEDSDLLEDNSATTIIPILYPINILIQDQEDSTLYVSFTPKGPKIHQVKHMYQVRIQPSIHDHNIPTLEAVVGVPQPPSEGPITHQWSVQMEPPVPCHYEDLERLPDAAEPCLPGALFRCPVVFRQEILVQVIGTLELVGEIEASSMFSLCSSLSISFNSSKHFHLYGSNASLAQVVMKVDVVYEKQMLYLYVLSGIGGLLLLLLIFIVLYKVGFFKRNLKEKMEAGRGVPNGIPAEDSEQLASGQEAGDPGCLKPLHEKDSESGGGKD
T1 sequence (P05107 23-769 partner): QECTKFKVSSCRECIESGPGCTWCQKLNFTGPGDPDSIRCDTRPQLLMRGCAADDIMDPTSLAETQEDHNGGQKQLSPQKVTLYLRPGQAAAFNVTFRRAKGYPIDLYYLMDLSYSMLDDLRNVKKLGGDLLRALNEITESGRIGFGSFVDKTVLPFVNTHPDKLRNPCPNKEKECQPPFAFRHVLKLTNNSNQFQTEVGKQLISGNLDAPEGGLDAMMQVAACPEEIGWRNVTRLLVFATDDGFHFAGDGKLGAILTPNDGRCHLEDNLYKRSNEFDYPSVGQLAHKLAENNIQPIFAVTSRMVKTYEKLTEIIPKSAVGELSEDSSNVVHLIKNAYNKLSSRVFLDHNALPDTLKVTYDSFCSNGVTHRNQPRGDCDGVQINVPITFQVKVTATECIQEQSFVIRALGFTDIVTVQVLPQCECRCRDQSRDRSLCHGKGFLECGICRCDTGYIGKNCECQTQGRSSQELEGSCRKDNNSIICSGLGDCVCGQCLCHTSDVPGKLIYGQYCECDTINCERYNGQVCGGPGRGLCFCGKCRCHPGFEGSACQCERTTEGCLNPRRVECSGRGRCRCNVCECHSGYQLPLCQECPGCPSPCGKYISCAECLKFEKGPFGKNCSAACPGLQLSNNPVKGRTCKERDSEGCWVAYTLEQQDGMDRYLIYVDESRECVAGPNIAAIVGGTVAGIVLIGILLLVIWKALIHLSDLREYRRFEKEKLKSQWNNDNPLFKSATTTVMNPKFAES
T2 sequence (P13612 34-1032): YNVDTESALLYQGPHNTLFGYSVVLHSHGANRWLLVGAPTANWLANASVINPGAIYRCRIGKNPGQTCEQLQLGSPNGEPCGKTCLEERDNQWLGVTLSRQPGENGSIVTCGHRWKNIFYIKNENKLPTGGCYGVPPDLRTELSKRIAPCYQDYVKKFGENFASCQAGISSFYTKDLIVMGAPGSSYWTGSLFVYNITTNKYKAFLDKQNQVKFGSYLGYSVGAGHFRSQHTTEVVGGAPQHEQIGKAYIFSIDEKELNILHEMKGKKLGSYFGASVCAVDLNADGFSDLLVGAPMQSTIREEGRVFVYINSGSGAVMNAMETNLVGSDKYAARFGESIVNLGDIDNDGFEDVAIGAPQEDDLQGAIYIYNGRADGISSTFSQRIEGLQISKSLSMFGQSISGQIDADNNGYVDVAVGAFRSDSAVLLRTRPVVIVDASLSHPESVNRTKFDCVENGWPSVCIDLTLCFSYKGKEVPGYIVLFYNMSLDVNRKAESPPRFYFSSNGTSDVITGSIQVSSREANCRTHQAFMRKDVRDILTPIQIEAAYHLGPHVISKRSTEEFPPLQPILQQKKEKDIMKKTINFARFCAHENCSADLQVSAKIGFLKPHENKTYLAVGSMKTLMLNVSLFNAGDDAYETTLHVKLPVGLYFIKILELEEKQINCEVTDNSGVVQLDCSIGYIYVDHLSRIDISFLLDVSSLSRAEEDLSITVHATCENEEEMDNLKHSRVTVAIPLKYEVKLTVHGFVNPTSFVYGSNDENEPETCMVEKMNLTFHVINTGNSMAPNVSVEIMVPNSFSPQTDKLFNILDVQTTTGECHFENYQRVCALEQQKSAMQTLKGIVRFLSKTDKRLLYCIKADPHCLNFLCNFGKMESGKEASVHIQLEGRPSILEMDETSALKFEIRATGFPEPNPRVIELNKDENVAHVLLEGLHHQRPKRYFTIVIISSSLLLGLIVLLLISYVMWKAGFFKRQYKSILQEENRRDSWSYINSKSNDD
T2 sequence (P05556 21-798): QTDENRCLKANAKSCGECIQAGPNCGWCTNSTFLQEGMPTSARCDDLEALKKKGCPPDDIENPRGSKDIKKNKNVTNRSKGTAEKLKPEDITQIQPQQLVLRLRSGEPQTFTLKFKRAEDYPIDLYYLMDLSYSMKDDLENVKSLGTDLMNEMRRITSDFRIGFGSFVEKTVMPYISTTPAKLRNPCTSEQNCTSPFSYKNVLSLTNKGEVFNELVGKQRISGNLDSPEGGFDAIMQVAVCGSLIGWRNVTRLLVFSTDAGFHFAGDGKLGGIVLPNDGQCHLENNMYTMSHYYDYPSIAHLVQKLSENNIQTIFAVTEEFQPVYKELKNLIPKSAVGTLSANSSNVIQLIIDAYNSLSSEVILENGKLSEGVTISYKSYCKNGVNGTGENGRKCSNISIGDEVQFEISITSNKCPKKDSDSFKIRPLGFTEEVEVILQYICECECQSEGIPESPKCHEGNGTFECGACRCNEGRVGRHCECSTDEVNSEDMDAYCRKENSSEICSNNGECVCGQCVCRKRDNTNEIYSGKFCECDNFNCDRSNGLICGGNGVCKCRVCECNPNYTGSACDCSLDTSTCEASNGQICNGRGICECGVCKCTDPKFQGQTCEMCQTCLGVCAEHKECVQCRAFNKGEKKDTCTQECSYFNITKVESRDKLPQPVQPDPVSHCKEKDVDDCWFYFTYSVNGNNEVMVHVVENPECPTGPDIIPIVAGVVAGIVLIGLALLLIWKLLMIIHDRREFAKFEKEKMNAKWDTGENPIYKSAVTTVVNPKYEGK

Row | SMILES | IC50 [1] | CellTiter-Glo Jurkat % viability at 10 μM [2] | IC50 [3] | CellTiter-Glo HepG2 % viability at 10 μM [4] | mAb MEM148 binding, binding relative to solvent ctrl at 10 μM [5] | Toxilight HepG2 % viability at 10 μM [6] | Toxilight Jurkat % viability at 10 μM [7] | mAb R7.1 binding % inhibition at 1 μM [8] | inhibition at 1 µM [8]
1 | C[C@]12C(=O)N(c3cc(Cl)cc(Cl)c3)C(=O)[C@H]1C2(c1ccccc1)c1ccccc1 (racemic) [4b (racemate), rac-(1S,5S)-3-(3,5-Dichlorophenyl)-1-methyl-6,6-diphenyl-3-azabicyclo[3.1.0]hexane-2,4-dione] | 1870 ± 1270 nM | 96.8 ± 4.7% | > 10000 nM | 98.4 ± 3.8% | 0.974 | 124 ± 29.7% | 101 ± 9.8% | 80.0% | 76.9%
2 | C[C@]12C(=O)N(c3cc(Cl)cc(Cl)c3)C(=O)[C@H]1[C@H]2c1ccc(Br)cc1 (racemic) [4′f (racemate), rac-(1R,5S,6S)-6-(4-Bromophenyl)-3-(3,5-dichloro-phenyl)-1-methyl-3-azabicyclo[3.1.0]hexane-2,4-dione] | 715 ± 618 nM | 115.0 ± 4.8% | > 10000 nM | 101.6 ± 4.0% | 0.96 | 115.6 ± 35.1% | 99.9 ± 24.2% | 91.7% | 85.2%
3 | C[C@]12C(=O)N(c3cc(Cl)cc(Cl)c3)C(=O)[C@H]1[C@H]2c1ccc(OC(F)(F)F)cc1 (racemic) [4′g (racemate), rac-(1R,5S,6S)-3-(3,5-Dichlorophenyl)-1-methyl-6-[4-(trifluoromethoxy)phenyl]-3-azabicyclo[3.1.0]hexane-2,4-dione] | 550 ± 206 nM | 111.4 ± 7.4% | > 10000 nM | 102.6 ± 4.5% | 0.89 | 99.8 ± 26.5% | 116 ± 16.2% | 94.1% | 93.6%
4 | C[C@]12C(=O)N(c3cc(Cl)cc(Cl)c3)C(=O)[C@H]1[C@H]2c1ccc(C#N)cc1 (racemic) [4′h (racemate), rac-4-[(1R,5S,6S)-3-(3,5-Dichlorophenyl)-1-methyl-2,4-dioxo-3-azabicyclo[3.1.0]hexan-6-yl]benzonitrile] | 147 nM | 112.6 ± 4.9% | > 10000 nM | 103.7 ± 3.2% | 1.00 | 78.3 ± 35.2% | 93.5 ± 2.06% | 95.8% | 96.8%
5 | CC12C(=O)N(c3cc(Cl)cc(Cl)c3)C(=O)C1C2(c1ccccc1)c1ccccc1 (single isomer, unassigned) [4b enantiomer A] | 1340 ± 678 nM | 92.8 ± 4.7% | > 10000 nM | 101.5 ± 1.9% | no | 120 ± 40.2% | 100 ± 12.9% | – | 87.3%
